BindingDB's records for doi:10.1124/mol.107.035832 (Nih, 2007)

These compounds were tested against T1, Serine/threonine-protein kinase Chk2 [209-531,Q209M] (Homo sapiens, UniProt O96017, Q209M) (assay: In Vitro Protein Kinase Assay). Conditions: pH 7.5; 30 °C.
T1 construct: 209-531
Description: Recombinant Chk2 was incubated with either histone H1 (or GST-Cdc25C) in reaction buffer, and incubated at 30 deg C for indicated times. For the drug inhibition experiments, samples were coincubated with drug during the reactions. Reactions were stopped by adding sample buffer, and samples were boiled for 5 min. Reaction products were separated by 4-20% SDS-PAGE. Chk2 protein kinase activity, measured as 32P incorporation into Chk2, histone H1 (or GST-Cdc25C), was determined using a PhosphorImager (GE Healthcare, Chalfont St. Giles, Buckinghamshire, UK). Densitometry was performed using Image-Quant.

T1 sequence (O96017 209-531 Q209M): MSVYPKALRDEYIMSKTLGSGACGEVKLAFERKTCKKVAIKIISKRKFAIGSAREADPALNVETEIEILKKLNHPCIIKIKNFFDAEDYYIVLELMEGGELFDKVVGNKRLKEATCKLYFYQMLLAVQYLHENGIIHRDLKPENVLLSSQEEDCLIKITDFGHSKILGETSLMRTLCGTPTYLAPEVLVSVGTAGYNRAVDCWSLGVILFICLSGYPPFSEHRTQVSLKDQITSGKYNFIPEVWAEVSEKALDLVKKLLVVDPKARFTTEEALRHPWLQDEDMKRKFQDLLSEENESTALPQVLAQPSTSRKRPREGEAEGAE

Row | SMILES | IC50
1 | NC1=NC(=O)C(=C2CCNC(=O)c3[nH]ccc32)N1 [B722657K110] | 0.42 µM
2 | CC(=NN=C(N)N)c1ccc(NC(=O)Nc2ccc(C(C)=NN=C(N)N)cc2)cc1 [diacetyldiphenylurea bisguanylhydrazone] | 0.24 µM

What follows are compounds tested against T1, Serine/threonine-protein kinase Chk2 [209-531,Q209M] (assay: IMAP High-Throughput Screening). Conditions: pH 7.2; 23 °C.
Description: The IMAP Screening Express Kit (Molecular Devices, Sunnyvale, CA) was used for the high-throughput screening experiments. Compounds from the Developmental Therapeutics Program (DTP) Open Repository were solubilized and diluted in DMSO and initially tested at one concentration in the assay. Active compounds were subsequently titrated at 20 2-fold dilutions. Reactions were performed using recombinant Chk2 with the indicated drug concentrations in reaction buffer in 384-well black microplate (Greiner Bio-One, Longwood, FL)] for 60 min at room temperature. IMAP binding reagent was added to each well, plates were incubated for 30 min at room temperature, and fluorescence polarization was measured using a Tecan Ultra plate reader. Each screening plate contained staurosporine as a positive control.

Row | SMILES | IC50
3 | CC(=NN=C(N)N)c1ccc(C(C)=NN=C(N)N)cc1 [NSC 67931] | > 20 µM
4 | CC(C=NNC(=N)N)=NNC(=N)N [NSC 69432 (MGBG)] | > 20 µM
5 | CC(=NN=C(N)N)c1ccc(NC(=S)Nc2ccccc2)cc1 [NSC 177940] | > 20 µM
6 | CC(=NN=C(N)N)c1cccc(NC(=S)Nc2cccc(C(C)=NN=C(N)N)c2)c1 [NSC 177941] | > 20 µM

Next, values leading:

Row | IC50 | SMILES
7 | > 20 µM | CC(=NN=C(N)N)c1cccc(NC(=O)Nc2cccc(C(C)=NN=C(N)N)c2)c1 [NSC 177944]
8 | > 20 µM | CNC(=O)Nc1ccc(C(C)=NNC(N)=S)cc1 [NSC 377844]
9 | 0.2 µM | CC(=NN=C(N)N)c1ccc(NC(=O)Nc2ccc(C(C)=NN=C(N)N)cc2)cc1 [diacetyldiphenylurea bisguanylhydrazone]
